The record followed here is US20140357655A1, “SPIROINDOLINE DERIVATIVES AS GONADOTROPIN- RELEASING HORMONE RECEPTOR ANTAGONISTS” (Bayer Intellectual Property GmbH, priority 2012, published 2014).

The structures appear in SMILES notation.

As usually defined, the IC50 is the concentration that gives 50% inhibition.

For this experiment, the target named is T1, human GnRH receptor (Homo sapiens, UniProt P30968).
T1 sequence (P30968 1-328): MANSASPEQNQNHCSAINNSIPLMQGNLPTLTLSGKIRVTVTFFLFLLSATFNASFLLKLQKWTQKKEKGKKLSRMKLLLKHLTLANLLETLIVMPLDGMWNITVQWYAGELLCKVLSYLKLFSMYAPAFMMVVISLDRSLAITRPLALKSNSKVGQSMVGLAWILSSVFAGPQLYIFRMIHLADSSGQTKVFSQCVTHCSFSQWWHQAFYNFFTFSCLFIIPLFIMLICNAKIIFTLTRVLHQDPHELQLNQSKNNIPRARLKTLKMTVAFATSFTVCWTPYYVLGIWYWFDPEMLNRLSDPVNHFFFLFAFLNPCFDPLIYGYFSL
The experiment can be described thus: IP-One HTRF assay with buserelin (at EC80) stimulation. It is filed as cell-based. As to conditions: CHO cells stably expressing human GnRH receptor, read-out: Potency in IP-One HTRF assay, given as IC50. The source says: 2.3. IP-One HTRF® Assay By using homogenous time-resolved fluorescence resonance energy transfer (HTRF), the generation of one component of the GnRH—R signalling cascade can be measured. After stimulation of CHO cells stably expressing human GnRH receptor (established by Prof. Thomas Gudermann, currently University of Marburg, Germany; supplied as frozen cell aliquots by Cell Culture Services, Hamburg, Germany) with the EC80 of the GnRH agonist buserelin, Gq protein-coupled receptor signalling cascade is activated resulting in PLC-dependent cleavage of PIP2 to Inositol-1,4,5-triphosphate (IP3) and Diacylglycerol. The second messenger IP3 is degraded intracellularly to myo-inositol. Inhibition of the final degradation step from Inositol-1-phosphate (IP1) to myo-inositol by addition of lithium chloride leads to accumulation of IP1 in the cells. In cell lysates, IP1 can be detected via an antibody-based HTRF detection technology, where IP1 can displace the FRET acceptor IP1-d2 from binding by Terbium-labelled anti-IP1 antibody as donor resulting in a signal decrease. Compounds were tested for their capability of inhibiting GnRH—R activation by buserelin. For all IP-One HTRF® assays reagents of Cisbio Bioassays (IP-One Tb Jumbo kit, #62IPAPEJ; Cisbio Bioassays, Bagnols sur Cèze Cedex, France) were used.
For the assay, frozen cell aliquots were thawed and a cell suspension (3.33×10^6 cells/mL) containing IP1-d2 (dilution 1:40) was prepared and incubated at 37° C. After 1 h 3 μl of the cell suspension were added to 50 nl of a 100-fold concentrated solution of the test compound in DMSO pre-dispensed in a well of a white low-volume 384-well microtiter plate (Greiner Bio-One, Frickenhausen, Germany). […] Plates were incubated for 1 h at 37° C. and 5% carbon dioxide before the cells were lysed by adding 3 μl Terbium-labelled anti-IP1 antibody (1:40) diluted in Conjugate & Lysis buffer as supplied with the kit. After an incubation for 1 h at 22° C. to enable complete cell lysis and antibody binding to free IP1 or IP1-d2, plates were measured in an HTRF reader, e.g. a RUBYstar, PHERAstar (both BMG Labtechnologies, Offenburg, Germany) or a Viewlux (PerkinElmer LAS, Rodgau-Jügesheim, Germany).
From the fluorescence emissions at 665 nm (FRET) and at 620 nm (background signal of Terbium-antibody), the ratio (emission at 665 nm divided by emission at 620 nm) was calculated and the data were normalized (reaction without test compound=0% inhibition; all other assay components except agonist=100% inhibition). On the same microtiter plate, compounds were tested at 10 different concentrations in the range of 20 μM to 1 nM (20 μM, 6.7 μM, 2.2 μM, 0.74 μM, 0.25 μM, 82 nM, 27 nM, 9.2 nM, 3.1 nM and 1 nM; dilution series prepared before the assay at the level of the 100-fold conc. stock solutions by serial 1:3 dilutions in 100% DMSO) in duplicate values for each concentration. By using an in-house software, the IC50 values were calculated by a 4 parameter fit.
In general terms: TR-FRET usually uses a lanthanide donor and a delayed reading to cut background.
In the case of `CC1N(S(=O)(=O)c2ccc(F)cc2)c2ccc(C(=O)NCc3ncccc3Cl)cc2C12CCOCC2` (racemic) [Example 1, N-[(3-Chloropyridin-2-yl)methyl]-1-[(4-fluorophenyl)sulfonyl]-2-methyl-1,2,2′,3′,5′,6′-hexahydrospiro[indole-3,4′-pyran]-5-carboxamide], the IC50 came out at 584 nM.

For `O=C(NCc1ccccc1Cl)c1ccc2c(c1)C1(CCSCC1)C(C1CC1)N2S(=O)(=O)c1ccc(F)cc1` (racemic) [Example 12, N-(2-Chlorobenzyl)-2-cyclopropyl-1-[(4-fluorophenyl)sulfonyl]-1,2,2′,3′,5′,6′-hexahydrospiro[indole-3,4′-thiopyran]-5-carboxamide], the IC50 was 186 nM.

Regarding `O=C(NCc1ncccc1Cl)c1ccc2c(c1)C1(CCS(=O)(=O)CC1)C(C1CC1)N2S(=O)(=O)c1ccc(F)cc1` (racemic) [Example 14, N-[(3-Chloropyridin-2-yl)methyl]-2-cyclopropyl-1-[(4-fluorophenyl)sulfonyl]-1,2,2′,3′,5′,6′-hexahydrospiro[indole-3,4′-thiopyran]-5-carboxamide 1′,1′-dioxide], the IC50 is 245 nM.

Take `CC1N(S(=O)(=O)c2ccc(F)cc2)c2ccc(C(=O)NCc3ncccc3Cl)cc2C12CCOCC2` (single isomer, unassigned) [Example 1.1, N-[(3-Chloropyridin-2-yl)methyl]-1-[(4-fluorophenyl)sulfonyl]-2-methyl-1,2,2′,3′,5′,6′-hexahydrospiro[indole-3,4′-pyran]-5-carboxamide]: the IC50 stood at 146 nM.

`CC1N(S(=O)(=O)c2ccc(F)cc2)c2ccc(C(=O)NCc3ncccc3Cl)cc2C12CCOCC2` (single isomer, unassigned) [Example 1.2, N-[(3-Chloropyridin-2-yl)methyl]-1-[(4-fluorophenyl)sulfonyl]-2-methyl-1,2,2′,3′,5′,6′-hexahydrospiro[indole-3,4′-pyran]-5-carboxamide]: the IC50 was determined as 19500 nM.

With `CC1N(S(=O)(=O)c2ccc(F)cc2)c2ccc(C(=O)NCc3ccccc3Cl)cc2C12CCOCC2` (single isomer, unassigned) [Example 2.1, N-(2-chlorobenzyl)-1-[(4-fluorophenyl)sulfonyl]-2-methyl-1,2,2′,3′,5′,6′-hexahydrospiro[indole-3,4′-pyran]-5-carboxamide], the concentration for half-maximal inhibition (IC50) amounted to 9320 nM.

Turning to `CC1N(S(=O)(=O)c2ccc(F)cc2)c2ccc(C(=O)NCc3ccccc3Cl)cc2C12CCOCC2` (single isomer, unassigned) [Example 2.2, N-(2-chlorobenzyl)-1-[(4-fluorophenyl)sulfonyl]-2-methyl-1,2,2′,3′,5′,6′-hexahydrospiro[indole-3,4′-pyran]-5-carboxamide], the half-maximal inhibitory concentration (IC50) came out at 83 nM.

`CC1N(S(=O)(=O)c2ccc(F)cc2)c2ccc(C(=O)NCc3ncccc3C(F)(F)F)cc2C12CCOCC2` (single isomer, unassigned) [Example 3.1, 1-[(4-fluorophenyl)sulfonyl]-2-methyl-N-{[3-(trifluoromethyl)pyridin-2-yl]methyl}-1,2,2′,3′,5′,6′-hexahydrospiro[indole-3,4′-pyran]-5-carboxamide]: the 50% inhibitory concentration (IC50) came out at 226 nM.

`CC1N(S(=O)(=O)c2ccc(F)cc2)c2ccc(C(=O)NCc3ncccc3C(F)(F)F)cc2C12CCOCC2` (single isomer, unassigned) [Example 3.2, 1-[(4-fluorophenyl)sulfonyl]-2-methyl-N-{[3-(trifluoromethyl)pyridin-2-yl]methyl}-1,2,2′,3′,5′,6′-hexahydrospiro[indole-3,4′-pyran]-5-carboxamide]: the 50% inhibitory concentration (IC50) was more than 20000 nM.

For the compound `O=C(NCc1ccccc1Cl)c1ccc2c(c1)C1(CCSCC1)C(C1CC1)N2S(=O)(=O)c1ccc(F)cc1` (single isomer, unassigned) [Example 12.1, N-(2-Chlorobenzyl)-2-cyclopropyl-1-[(4-fluorophenyl)sulfonyl]-1,2,2′,3′,5′,6′-hexahydrospiro[indole-3,4′-thiopyran]-5-carboxamide], the IC50 stood at 178 nM.

As for `O=C(NCc1ccccc1Cl)c1ccc2c(c1)C1(CCSCC1)C(C1CC1)N2S(=O)(=O)c1ccc(F)cc1` (single isomer, unassigned) [Example 12.2, N-(2-Chlorobenzyl)-2-cyclopropyl-1-[(4-fluorophenyl)sulfonyl]-1,2,2′,3′,5′,6′-hexahydrospiro[indole-3,4′-thiopyran]-5-carboxamide], the IC50 was determined as 3730 nM.

Take `O=C(NCc1ccccc1Cl)c1ccc2c(c1)C1(CC[S+]([O-])CC1)C(C1CC1)N2S(=O)(=O)c1ccc(F)cc1` (single isomer, unassigned) [Example 13.2, N-(2-Chlorobenzyl)-2-cyclopropyl-1-[(4-fluorophenyl)sulfonyl]-1,2,2′,3′,5′,6′-hexahydrospiro[indole-3,4′-thiopyran]-5-carboxamide 1′-oxide]: the IC50 came out at 383 nM.

Consider `O=C(NCc1ncccc1Cl)c1ccc2c(c1)C1(CCS(=O)(=O)CC1)C(C1CC1)N2S(=O)(=O)c1ccc(F)cc1` (single isomer, unassigned) [Example 14.2, N-[(3-Chloropyridin-2-yl)methyl]-2-cyclopropyl-1-[(4-fluorophenyl)sulfonyl]-1,2,2′,3′,5′,6′-hexahydrospiro[indole-3,4′-thiopyran]-5-carboxamide 1′,1′-dioxide], for which the IC50 was determined as 5390 nM.

As to `O=C(NCc1ncccc1C(F)(F)F)c1ccc2c(c1)C1(CCS(=O)(=O)CC1)C(C1CC1)N2S(=O)(=O)c1ccc(F)cc1` (single isomer, unassigned) [Example 15.1, 2-cyclopropyl-1-[(4-fluorophenyl)sulfonyl]-N-{[3-(trifluoromethyl)pyridin-2-yl]methyl}-1,2,2′,3′,5′,6′-hexahydrospiro[indole-3,4′-thiopyran]-5-carboxamide 1′,1′-dioxide], the 50% inhibitory concentration (IC50) was more than 20000 nM.

On to `O=C(NCc1ncccc1C(F)(F)F)c1ccc2c(c1)C1(CCS(=O)(=O)CC1)C(C1CC1)N2S(=O)(=O)c1ccc(F)cc1` (single isomer, unassigned) [Example 15.2, 2-cyclopropyl-1-[(4-fluorophenyl)sulfonyl]-N-{[3-(trifluoromethyl)pyridin-2-yl]methyl}-1,2,2′,3′,5′,6′-hexahydrospiro[indole-3,4′-thiopyran]-5-carboxamide 1′,1′-dioxide], for which the half-inhibitory concentration (IC50) was 69 nM.

For the compound `O=C(NCc1ccc(F)cc1Cl)c1ccc2c(c1)C1(CCS(=O)(=O)CC1)C(C1CC1)N2S(=O)(=O)c1ccc(F)cc1` (single isomer, unassigned) [Example 16.1, N-(2-chloro-4-fluorobenzyl)-2-cyclopropyl-1-[(4-fluorophenyl)sulfonyl]-1,2,2′,3′,5′,6′-hexahydrospiro[indole-3,4′-thiopyran]-5-carboxamide 1′,1′-dioxide], the IC50 worked out at 62 nM.

Regarding `O=C(NCc1ccc(F)cc1Cl)c1ccc2c(c1)C1(CCS(=O)(=O)CC1)C(C1CC1)N2S(=O)(=O)c1ccc(F)cc1` (single isomer, unassigned) [Example 16.2, N-(2-chloro-4-fluorobenzyl)-2-cyclopropyl-1-[(4-fluorophenyl)sulfonyl]-1,2,2′,3′,5′,6′-hexahydrospiro[indole-3,4′-thiopyran]-5-carboxamide 1′,1′-dioxide], the IC50 came to 6840 nM.

In the case of `O=C(NCc1ncc(F)cc1Cl)c1ccc2c(c1)C1(CCS(=O)(=O)CC1)C(C1CC1)N2S(=O)(=O)c1ccc(F)cc1` (single isomer, unassigned) [Example 17.1, N-[(3-chloro-5-fluoropyridin-2-yl)methyl]-2-cyclopropyl-1-[(4-fluorophenyl)sulfonyl]-1,2,2′,3′,5′,6′-hexahydrospiro[indole-3,4′-thiopyran]-5-carboxamide 1′,1′-dioxide], the IC50 was 139 nM.
